The results in this text go back to paper PMC12040169 (PLOS Biology, 2025).

A short description of this series: in vitro. The following applies: human, hela cells, % viability.

Structures are written as SMILES.

A word on the viability: it is a read-out of living cells in per cent, often relative to untreated cells. As to `C[C@@H](Nc1nccnc1-c1ccc(C(=O)N2CCOCC2)cc1)c1ccccc1` [CBK037058], the viability at 28.5 h, 10 µM is 107%.
Same read-out and setting: next, `CC1=C[C@@H](CNS(C)(=O)=O)[C@H](C(C)C)C[C@H]1CC(=O)N1CCOCC1` [CBK289050]: 89.3%; `COc1cccc(NC(=O)c2ccc(-c3ccsc3)nc2NCC2CC2)c1` [CBK106227]: 90.5%; `COC(=O)CCC1(C)CN(C)CCC1=O` (centres unmarked) [CBK028494]: 85%.
Still for that read-out and setting: then `CC(C)N(C(=O)c1ccccc1-c1cnn2cccnc12)C(C)C` [CBK307701], with 85.4%.
In the case of `O=C(CN1C(=O)N2CCN=C2c2ccccc21)NC1CCCC1` [CBK283959], the viability at 28.5 h, 10 µM was determined as 100%.
For the compound `O=C(O)CCC(=O)N1CCN(Cc2ccc(Cl)cc2)CC1` [CBK286852], the viability at 28.5 h, 10 µM is 90%.
Take `Cc1c(OCc2ccccc2)ccc2c1OC1(CCN(C(=O)c3ccccn3)CC1)CC2=O` [CBK156441]: the viability at 28.5 h, 10 µM came to 106%.
Still for that read-out and setting: next, `Cc1ccc(-c2csc3c(=O)[nH]c(N4CCCC(C(=O)NCc5cccnc5)C4)nc23)cc1` (centres unmarked) [CBK215546]: 91.7%; `N#CCCN(Cc1ccco1)C(=O)c1ccc(OCC2CC2)cc1` [CBK304051]: 85%.
As for `Cc1nn(CC(=O)NC(C)C)c(=O)c2cc3sccc3n12` [CBK284048], the viability at 28.5 h, 10 µM worked out at 104%.
With `O=C(O)c1cc(-c2ccc(/C=C3\SC(=S)N(Cc4cccnc4)C3=O)o2)ccc1Cl` [CBK264712], the viability at 28.5 h, 10 µM worked out at 112%.
In the case of `Brc1ccc(CN2CCN(Cc3c[nH]c4ccccc34)CC2)cc1` [CBK027622], the viability at 28.5 h, 10 µM was found to be 85.4%.
`COc1ccccc1-c1cnc(Nc2ccc(N3CCOCC3)cc2)c2nccn12` [CBK091230]: the viability at 28.5 h, 10 µM was 99.9%.
Take `COc1ccc(OCCNC(=O)c2cc(-c3cccnc3)cnc2N2CCOCC2)cc1` [CBK076341]: the viability at 28.5 h, 10 µM was determined as 96.2%.
The same measure, in the same setting: next, `O=C(O)C1C(c2ccccc2)C(C(=O)Oc2cccc3ccccc23)C1c1ccccc1` (centres unmarked) [CBK263869]: 110%; `Cn1c(=O)n(C)c2cc(S(=O)(=O)NCC3(N)CCOCC3)ccc21` [CBK306266]: 113%; `Cc1ccn2c(=O)c(C(=O)NCc3cccnc3N3CCOCC3)cnc2c1` [CBK298316]: 86.1%.
In the case of `N=C(N)NCCCc1c[nH]c2ccccc12` [CBK012139G], the viability at 28.5 h, 10 µM stood at 101%.
In the case of `CC1(C)Cc2nc(N3CCOCC3)ncc2C(NC(=O)C2CCC2)C1` (centres unmarked) [CBK306943], the viability at 28.5 h, 10 µM was 83.8%.
Regarding `COc1ccc(C(=O)N2CCC3(CCCN(C(=O)c4ccco4)C3)C2)cc1OC` (centres unmarked) [CBK131647], the viability at 28.5 h, 10 µM is 98.2%.
Regarding `O=C1OCc2ccc(NS(=O)(=O)c3ccc(OC(F)(F)F)cc3)cc21` [CBK043715], the viability at 28.5 h, 10 µM is 82.8%.
On the same count and under the same terms, next, `CC(=O)c1sccc1NS(=O)(=O)c1ccccc1` [CBK038384]: 92.5%.
Turning to `CC(C)CCNC(=O)N1CCNC(=O)C1` [CBK155874], the viability at 28.5 h, 10 µM is 98.3%.
As to `Cc1cc(COc2nc3ccccc3nc2NCCCCO)no1` [CBK173985], the viability at 28.5 h, 10 µM was 94.1%.
Take `O=C(NNC(=O)c1ccccc1C(=O)O)c1cccc(Cl)c1` [CBK261658]: the viability at 28.5 h, 10 µM amounted to 94.7%.
For the compound `CCN(CC)C(=O)c1c(NC(=O)c2cccs2)sc2c1CCC2` [CBK307096], the viability at 28.5 h, 10 µM was 93%.
For the compound `COc1cccc(N2N=C3NNC(N)=C3N2)c1` [CBK093665], the viability at 28.5 h, 10 µM is 83.7%.
As to `CN(Cc1cnn(C)c1)C(=O)C1CCCN1Cc1ccccn1` (centres unmarked) [CBK305092], the viability at 28.5 h, 10 µM was 96%.
Same read-out and setting: then `COc1ccc(NC(=O)CC2SC(NC3CCCCC3)=NC2=O)c(OC)c1` (centres unmarked) [CBK059502], with 93.7%; and `Cn1cnc2cc(NC(=O)NCCN3CCCC(CO)C3)ccc21` (centres unmarked) [CBK307582], with 107%; and `CN(C)c1nc(Cl)nc(N(C)C#N)n1` [CBK025922], with 87.7%.
Turning to `O=C(c1ccsc1NS(=O)(=O)Cc1ccccc1[N+](=O)[O-])N1CCOCC1` [CBK042294], the viability at 28.5 h, 10 µM was determined as 89.6%.
Regarding `OCCOc1cccnc1OCC1CC1` [CBK001461], the viability at 28.5 h, 10 µM worked out at 89.4%.
Regarding `COc1cccc(OC)c1-c1cn2ccnc2c(NCCc2ccccn2)n1` [CBK066173], the viability at 28.5 h, 10 µM turned out to be 109%.
Turning to `CC(C)(C)c1cc(/C=N/Nc2nc3ccccc3[nH]2)cc(C(C)(C)C)c1O` [CBK262247], the viability at 28.5 h, 10 µM was 90.2%.
In the case of `COc1ccc(C(CCN)c2ccccc2OC)cc1` (centres unmarked) [CBK266125], the viability at 28.5 h, 10 µM was determined as 103%.
As to `CCCC(=O)c1ccc2c(c1)CC(N(CCC)CCC)C2` (centres unmarked) [CBK023971C], the viability at 28.5 h, 10 µM is 95.1%.
With `CN(C)CCNc1cc(-c2ccncc2)nc2ccccc12` [CBK066898B], the viability at 28.5 h, 10 µM worked out at 90.4%.
Still for that read-out and setting: then `O=c1[nH]c2ncc(-c3ccco3)nc2n1Cc1ccccn1` [CBK064349], with 101%.
Same read-out and setting: next, `O=C(CN1CCC(Cc2ccccc2)CC1)Nc1ccc(S(=O)(=O)N2CCOCC2)cc1` [CBK268451]: 102%.
With `CS(=O)(=O)N(CC(=O)O)c1cccc2ccccc12` [CBK262420], the viability at 28.5 h, 10 µM came to 101%.
Regarding `N#CCCn1cc(C(=O)N2CCOCC2)c(-c2cccs2)n1` [CBK306195], the viability at 28.5 h, 10 µM worked out at 110%.
Turning to `O=C(NC(=S)N1CCN(CCN2C(=O)c3cccc4cccc(c34)C2=O)CC1)c1ccc2c(c1)OCO2` [CBK263577], the viability at 28.5 h, 10 µM is 82.2%.
On to `COc1ccc(C)cc1S(=O)(=O)n1ccc2c(CNC3CCN(C)CC3)cccc21` [CBK113308T], for which the viability at 28.5 h, 10 µM was determined as 90.6%.
Take `CCN(CC)C(=O)c1ccccc1NS(=O)(=O)c1cc(Br)c(Cl)s1` [CBK045424]: the viability at 28.5 h, 10 µM was 91.3%.
On the same count and under the same terms, then `COc1ccc(C2c3cc(OC)c(OC)cc3CC(=O)N2c2ccc(C(=O)O)cc2)cc1` (centres unmarked) [CBK296074], with 93.6%; and `CN1C(=O)c2cccc3c(S(=O)(=O)Nc4ccc(C(=O)O)c(O)c4)ccc1c23` [CBK299799], with 109%.
In the case of `Cc1nn(C)c(C)c1CCC(=O)NCC(C)Oc1ccccc1F` (centres unmarked) [CBK305194], the viability at 28.5 h, 10 µM came to 94.3%.
Still for that read-out and setting: next, `Cc1c(C)n(CC(O)CN2C(=O)c3ccccc3S2(=O)=O)c2ccccc12` (centres unmarked) [CBK263960]: 88.2%; `COCCNC(=O)c1cc(-c2ccc(C)s2)nc2c1cnn2C(C)C` [CBK305051]: 105%.
Take `O=C(/C=C/c1cccc([N+](=O)[O-])c1)NCCN1CCOCC1` [CBK262283]: the viability at 28.5 h, 10 µM is 90.5%.
As to `COc1nc(-c2ccc(N(C)C)nc2)nn1C` [CBK307317], the viability at 28.5 h, 10 µM was found to be 100%.
On to `Cc1ccc(S(=O)(=O)N2CCN(C(=O)C3C4C=CC(C4)C3C(=O)O)CC2)cc1` (centres unmarked) [CBK286944], for which the viability at 28.5 h, 10 µM came to 106%.
`O=S(=O)(Cc1ccccc1)NCc1ccccn1` [CBK262241]: the viability at 28.5 h, 10 µM turned out to be 96.2%.
In the case of `COc1ccc(Br)cc1CN1CCC(N2CCN(c3ccccc3OC)CC2)CC1` [CBK264681G], the viability at 28.5 h, 10 µM was 88.4%.
For `FC(F)(F)c1ccnc(OCCNc2ccccc2)c1` [CBK115824], the viability at 28.5 h, 10 µM was found to be 90.5%.
In the case of `COc1ccc(CC(=O)N2CCCC2c2cccc(Cc3ccc(F)cc3)n2)cc1` (centres unmarked) [CBK286233], the viability at 28.5 h, 10 µM came to 89.1%.
`COc1ccc(CNC(=O)c2cc(O)nc3ccccc23)cc1OC` [CBK296763]: the viability at 28.5 h, 10 µM is 90.2%.
For `CCN(CC)c1c(C)nc2ccc(C(=O)N3CCN(C)CC3)cn12` [CBK145955], the viability at 28.5 h, 10 µM was 91.5%.
In the case of `O=S(=O)(Nc1ccc(N2CCOCC2)cc1)c1cccc(OC(F)(F)F)c1` [CBK296759], the viability at 28.5 h, 10 µM is 95.1%.
As for `CCCCOC(=O)c1c(N)n(CCOC)c2nc3ccccc3nc12` [CBK264961], the viability at 28.5 h, 10 µM was 96.9%.
As for `Cc1csc2ncc(C(=O)Nc3ccccc3C#N)c(=O)n12` [CBK287458], the viability at 28.5 h, 10 µM is 95.3%.
As to `Nc1nc(SCC(=O)N2CCC(c3noc4ccc(F)cc34)CC2)n[nH]1` [CBK267326], the viability at 28.5 h, 10 µM is 91.4%.
With `FC(F)(F)c1cc(-c2cc(N3CCN(c4ccccn4)CC3)ncn2)cc(C(F)(F)F)c1` [CBK091082], the viability at 28.5 h, 10 µM worked out at 94.5%.
For the compound `O=C(NC1CCCCC1)N1C[C@@H]2C[C@H](C1)c1ccc(-c3cccnc3)c(=O)n1C2` [CBK289183], the viability at 28.5 h, 10 µM turned out to be 93.6%.
On to `Oc1ccc2ccccc2c1/C=N/c1ccc(-c2cc(-c3ccc(/N=C/c4c(O)ccc5ccccc45)cc3)ncn2)cc1` [CBK261621], for which the viability at 28.5 h, 10 µM came out at 104%.
Same read-out and setting: next, `Cc1ccc(OCC(=O)Nc2cccnc2)c(-n2nc3ccccc3n2)c1` [CBK270281]: 90.9%.
On the same count and under the same terms, then `C=CCC(NCc1ccccc1)c1ccc(C(=O)O)o1` (centres unmarked) [CBK286591], with 84.1%; and `O=C(Nc1ccc(F)cc1)c1ccccc1NS(=O)(=O)c1ccc(Br)cc1` [CBK045438], with 100%; and `Clc1cccc(CNc2cncc(-c3cccs3)n2)c1` [CBK065609], with 105%.
On the same count and under the same terms, next, `Cc1ccc(-c2noc(CN3CCN(c4ccccn4)CC3)n2)cc1` [CBK266457]: 95.7%; `CN(CC(O)CN1CCOCC1)C(=O)c1cc2sccc2[nH]1` (centres unmarked) [CBK306437]: 95.8%; `COc1nc2ccccc2nc1CCC(=O)NC(C)c1ccccc1` (centres unmarked) [CBK270065]: 100%.
Regarding `O=C(C1CC1)N1CCC(Cn2nc(-c3cccs3)ccc2=O)CC1` [CBK284039], the viability at 28.5 h, 10 µM came out at 101%.
In the case of `CCOC(=O)c1c(NC(=O)CN2CCCCC2)sc2c1CCCC2=O` [CBK263224], the viability at 28.5 h, 10 µM is 112%.
As for `O=[N+]([O-])c1ccc(OC/C=C2\Oc3ccc([N+](=O)[O-])cc3C2N2CCOCC2)cc1` (centres unmarked) [CBK262743], the viability at 28.5 h, 10 µM (bulk resorufin, single well) was determined as 91.8%.
As for `CCCCN(C=O)c1c(CC)nc2ccc(C(=O)NCC3CCCCC3)cn12` [CBK145708], the viability at 28.5 h, 10 µM was 85.3%.
The same measure, in the same setting: next, `COc1ccc(NC(=O)C(C)Sc2nc(N)cc(O)n2)cc1` (centres unmarked) [CBK265699]: 106%; `CCOc1cc(C)c(C(C)C)cc1S(=O)(=O)NCCN1CCOCC1` [CBK268727]: 110%.
